The results in this text go back to US20110070294A1, “Methods for the Administration of Drugs Using Liposomes” (priority 2009, published 2011).

This data set deals with bovine blood treated with heparin. The data set is described as follows: Hemolysis of heparin-treated bovine blood, absorbance of supernatant at 398 nm. To be noted: sample added to 1.4 mL heparinized bovine blood, room temperature, 10 minutes. The protocol:
100 μL of a 5 mg/mL lyophilized docetaxel preparation (50 mM sodium oleate reconstituted with 6% liposome (Doc-100), 200 μL of 5 mg/mL lyophilized docetaxel containing 50 mM sodium oleate and reconstituted with 6% liposome (Doc-200), […] of placebo containing 50 mM sodium oleate and reconstituted with 6% liposome (Placebo-100), 200 μL of placebo containing 50 mM sodium oleate and reconstituted with 6% liposome (Placebo-200), […] of Reverse osmotic deionized water (RODI (positive control)), 50 n1, of 50 mM sodium oleate (Na oleate-50) in isotonic 2.5% glycerol or 100 μL of 50 mM sodium oleate (Na oleate-100), or 200 μL of phosphate buffered saline (negative control)) was added to 1.4 mL of bovine blood treated with heparin. Doc-100 and Doc-200 were prepared using procedures similar to those in Examples 1 and 2. The samples were incubated at room temperature for 10 minutes, and then centrifuged at 8000 rpm for 20 minutes. The supernatant was used for spectral analysis. The absorbance of the samples was measured by UV-scanning the samples at wavelengths from 190 nm to 810 nm. The high absorbance at 398 nm is due to hemolysis of the blood.

SMILES strings stand for the structures.

Regarding `CCCCCCCC/C=C\CCCCCCCC(=O)[O-].[Na+]` [Na oleate-50, sodium oleate], the “hemolysis (absorbance at 398 nm, FIG. 1)” value is recorded as “complete hemolysis”.
